Experimental data taken from PubChem BioAssay (NCI).
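GI50 = concentration required for 50% inhibition of growth. The concentration for full growth arrest is given as TGI.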

What was measured:
Test in all cases: NCI tumour cell line growth inhibition, 384-well format
SF-268 CNS = tested on: SF-268 CNS
SF-539 CNS = tested on: SF-539 CNS
CAKI-1 renal = tested on: CAKI-1 renal
NCI-H322M lung = tested on: NCI-H322M lung
ACHN renal = tested on: ACHN renal
RPMI-8226 leukemia = tested on: RPMI-8226 leukemia
A498 renal = tested on: A498 renal
MDA-MB-468 breast = tested on: MDA-MB-468 breast
UACC-62 melanoma = tested on: UACC-62 melanoma
NCI/ADR-RES ovarian = tested on: NCI/ADR-RES ovarian
786-0 renal = tested on: 786-0 renal
MALME-3M melanoma = tested on: MALME-3M melanoma
HOP-62 NSCLC = tested on: HOP-62 NSCLC
KM12 colon = tested on: KM12 colon
MOLT-4 leukemia = tested on: MOLT-4 leukemia
SK-MEL-5 melanoma = tested on: SK-MEL-5 melanoma
OVCAR-5 ovarian = tested on: OVCAR-5 ovarian
EKVX NSCLC = tested on: EKVX NSCLC
NCI-H226 lung = tested on: NCI-H226 lung
SK-MEL-28 melanoma = tested on: SK-MEL-28 melanoma
MDA-MB-231 breast = tested on: MDA-MB-231 breast
SNB-75 CNS = tested on: SNB-75 CNS
TK-10 renal = tested on: TK-10 renal
HL-60(TB) leukemia = tested on: HL-60(TB) leukemia
HCC-2998 colon = tested on: HCC-2998 colon
HOP-92 NSCLC = tested on: HOP-92 NSCLC
OVCAR-4 ovarian = tested on: OVCAR-4 ovarian
NCI-H522 lung = tested on: NCI-H522 lung
U251 glioblastoma = tested on: U251 glioblastoma
OVCAR-3 ovarian = tested on: OVCAR-3 ovarian
CCRF-CEM leukemia = tested on: CCRF-CEM leukemia
SF-295 CNS = tested on: SF-295 CNS
SR leukemia = tested on: SR leukemia
IGROV1 ovarian = tested on: IGROV1 ovarian
PC-3 prostate = tested on: PC-3 prostate
T-47D breast = tested on: T-47D breast
HCT-15 colon = tested on: HCT-15 colon
COLO 205 colon = tested on: COLO 205 colon
MCF7 breast = tested on: MCF7 breast
NCI-H23 lung = tested on: NCI-H23 lung
OVCAR-8 ovarian = tested on: OVCAR-8 ovarian
HT29 colon = tested on: HT29 colon
NCI-H460 NSCLC = tested on: NCI-H460 NSCLC
SK-OV-3 ovarian = tested on: SK-OV-3 ovarian
BT-549 breast = tested on: BT-549 breast
HS 578T breast = tested on: HS 578T breast
SNB-19 CNS = tested on: SNB-19 CNS
UACC-257 melanoma = tested on: UACC-257 melanoma
SW-620 colon = tested on: SW-620 colon
M14 melanoma = tested on: M14 melanoma
MDA-MB-435 melanoma = tested on: MDA-MB-435 melanoma
DU-145 prostate = tested on: DU-145 prostate
SK-MEL-2 melanoma = tested on: SK-MEL-2 melanoma
SN12C renal = tested on: SN12C renal
RXF 393 renal = tested on: RXF 393 renal
A549 NSCLC = tested on: A549 NSCLC

## CC(C)n1nc(-c2ccc3oc(N)nc3c2)c2c(N)ncnc21
SF-268 CNS
  GI50: 0.0408 µM
  TGI: 0.579 µM
SF-539 CNS
  GI50: 0.0328 µM
  TGI: 0.626 µM
CAKI-1 renal
  GI50: 0.0147 µM
  TGI: 0.0828 µM
NCI-H322M lung
  GI50: 0.0142 µM
  TGI: 2.27 µM
ACHN renal
  GI50: 0.0362 µM
  TGI: 0.347 µM
RPMI-8226 leukemia
  GI50: < 0.01 µM
  TGI: < 0.01 µM
A498 renal
  GI50: < 0.01 µM
  TGI: 0.022 µM
MDA-MB-468 breast
  GI50: < 0.01 µM
  TGI: 0.0152 µM
UACC-62 melanoma
  GI50: 0.0184 µM
  TGI: 0.078 µM
NCI/ADR-RES ovarian
  GI50: 0.0359 µM
  TGI: 0.402 µM
786-0 renal
  GI50: 0.0448 µM
  TGI: 1.51 µM
MALME-3M melanoma
  GI50: < 0.01 µM
  TGI: < 0.01 µM
HOP-62 NSCLC
  GI50: 0.0124 µM
  TGI: 0.119 µM
KM12 colon
  GI50: 0.0217 µM
  TGI: 1.84 µM
MOLT-4 leukemia
  GI50: 0.0177 µM
  TGI: 0.726 µM
SK-MEL-5 melanoma
  GI50: 0.0138 µM
  TGI: 0.0458 µM
OVCAR-5 ovarian
  GI50: 0.0245 µM
  TGI: 0.603 µM
EKVX NSCLC
  GI50: 0.0182 µM
  TGI: 0.122 µM
NCI-H226 lung
  GI50: 0.0102 µM
  TGI: 0.0627 µM
SK-MEL-28 melanoma
  GI50: 0.0187 µM
  TGI: 0.0839 µM
MDA-MB-231 breast
  GI50: 0.0187 µM
  TGI: 0.681 µM
SNB-75 CNS
  GI50: < 0.01 µM
  TGI: 0.042 µM
TK-10 renal
  GI50: 0.0116 µM
  TGI: 0.109 µM
HL-60(TB) leukemia
  GI50: 0.326 µM
  TGI: 3 µM
HCC-2998 colon
  GI50: 0.0153 µM
  TGI: 5.31 µM
HOP-92 NSCLC
  GI50: 0.0202 µM
  TGI: 0.19 µM
OVCAR-4 ovarian
  GI50: 0.0185 µM
  TGI: 0.0567 µM
NCI-H522 lung
  GI50: < 0.01 µM
  TGI: 0.0326 µM
U251 glioblastoma
  GI50: 0.0662 µM
  TGI: 7.22 µM
OVCAR-3 ovarian
  GI50: 0.0222 µM
  TGI: 1.16 µM
CCRF-CEM leukemia
  GI50: 0.0161 µM
  TGI: 0.258 µM
SF-295 CNS
  GI50: 0.0278 µM
  TGI: 0.38 µM
SR leukemia
  GI50: 0.0173 µM
  TGI: 0.0635 µM
IGROV1 ovarian
  GI50: < 0.01 µM
  TGI: 0.0266 µM
PC-3 prostate
  GI50: < 0.01 µM
  TGI: 0.0853 µM
T-47D breast
  GI50: < 0.01 µM
  TGI: < 0.01 µM
HCT-15 colon
  GI50: < 0.01 µM
  TGI: 11.6 µM
COLO 205 colon
  GI50: 0.0126 µM
  TGI: 0.064 µM
MCF7 breast
  GI50: < 0.01 µM
  TGI: 7.12 µM
NCI-H23 lung
  GI50: 0.0743 µM
  TGI: 1.63 µM
OVCAR-8 ovarian
  GI50: 0.0401 µM
  TGI: 0.858 µM
HT29 colon
  GI50: 0.0445 µM
  TGI: 10.4 µM
NCI-H460 NSCLC
  GI50: < 0.01 µM
  TGI: 1.87 µM
SK-OV-3 ovarian
  GI50: < 0.01 µM
  TGI: 0.042 µM
BT-549 breast
  GI50: 0.0121 µM
  TGI: 0.0569 µM
HS 578T breast
  GI50: < 0.01 µM
  TGI: 0.0264 µM
SNB-19 CNS
  GI50: 0.0696 µM
  TGI: 10.6 µM
UACC-257 melanoma
  GI50: 0.0514 µM
  TGI: 0.523 µM
SW-620 colon
  GI50: 0.113 µM
  TGI: 3.14 µM
M14 melanoma
  GI50: 0.0147 µM
  TGI: 0.165 µM
MDA-MB-435 melanoma
  GI50: 0.0264 µM
  TGI: 0.152 µM
DU-145 prostate
  GI50: 0.0354 µM
  TGI: 2.68 µM
SK-MEL-2 melanoma
  GI50: 0.0537 µM
  TGI: 0.0921 µM
SN12C renal
  GI50: 0.0105 µM
  TGI: 1.45 µM
RXF 393 renal
  GI50: 0.0125 µM
  TGI: 0.0503 µM
A549 NSCLC
  GI50: 0.0179 µM
  TGI: 0.259 µM
